Results published in US20190204335A1, “Assay Method For Determining The Risk Of Pre-Eclampsia” (The Queen's University of Belfast, priority 2016, published 2019).
“Also recorded” adds a separate entry of the source.

How the values were obtained:
FKBPL [1] = test: FKBPL protein level in HUVEC under hypoxia or normoxia (Western blotting); type: cell-based, human; details: 24 h, metformin 10 μM
Protocol: HUVEC cells were seeded and then exposed to hypoxia (1%) or normoxia (21%) for 24 h in the presence of metformin or vehicle control (VC). Protein lysates were prepared and FKBPL protein level measured using Western blotting.

FKBPL [2] = test: FKBPL mRNA levels in HTR8.SV.neo cells; type: cell-based; details: 10 μM, 24 h, serum-containing medium
Protocol: (§1) Trophoblast (HTR8.SV.neo, BeWo) and endothelial cells (HUVEC) were exposed to: • i. diabetic stimuli, in the form of highly oxidised and glycated low density lipoproteins (HOG-LDL, 25 μg/ml)/4HNE (10 μM) or high glucose (10, 20, 30, 40 mM); or • ii. hypoxia (1%) or DMOG (10 μM), before FKBPL/SIRT1 protein and RNA levels were measured.

FKBPL [3] = test: FKBPL protein expression in BeWo trophoblast cell line; type: cell-based; details: BeWo cells, 10 μM, serum-containing medium
Protocol: as §1

| SMILES | FKBPL expression normalised to vehicle control (FKBPL [1]; hypoxia (1%)) | FKBPL expression normalised to vehicle control (FKBPL [1]; normoxia (21%)) | FKBPL mRNA levels (FKBPL [2]) | FKBPL mRNA levels (FKBPL [2]; listed as 4HNE) | FKBPL protein expression (FKBPL [3]) | FKBPL protein expression (FKBPL [3]; listed as 4HNE) |
| --- | --- | --- | --- | --- | --- | --- |
| CN(C)C(=N)N=C(N)N [metformin] | increasing the protein expression of FKBPL; also recorded: upregulates FKBPL | No change in FKBPL levels; also recorded: does not affect levels of FKBPL |  |  |  |  |
| CCCCCC(O)/C=C/C=O (centres unmarked) [4-HNE] |  |  | No change | No change in FKBPL mRNA levels | downregulation of FKBPL protein expression | reduction in FKBPL protein levels |
| COC(=O)CNC(=O)C(=O)OC [DMOG] |  |  | reduction in FKBPL mRNA levels; also recorded: downregulation in FKBPL mRNA levels |  | reduction; also recorded: downregulation of FKBPL protein expression |  |
